Reference: patent US12435044B2, “Pyridazinone herbicides and pyridazinone intermediates used to prepare a herbicide” (FMC Corporation, priority 2018, dated 2025)

Legend:
Format in all cases: in vivo
[1] = test system: corn (ZEAMD; Zea mays, cv. ‘Pioneer 1184’); test: Test K pre-/postemergence, mixtures of Cpd. No. 20 with metribuzin or rimsulfuron
From the text: (§1) This test evaluated the effect of mixtures of Cpd. No. 20 with metribuzin or rimsulfuron on several plant species. Seeds of plant species selected from corn (ZEAMD; Zea mays, cv. ‘Pioneer 1184’), soybean (GLXMA; Glycine max, cv. Pioneer 35T58), giant foxtail (SETFA; Setaria faberi), palmer amaranth (AMAPA; Amaranthus palmeri), common waterhemp (AMATU; Amaranthus rudis), mare's tail (ERICA; Conyza canadensis), and common ragweed (AMBEL; Ambrosia artemisiifolia) were planted in pots containing Tama Silt Loam soil and treated preemergence with a directed soil spray using test chemicals formulated in a non-phytotoxic solvent mixture which included a surfactant.
(§2) At the same time, plants selected from these crop and weed species were planted in pots containing Redi-Earth® planting medium (Scotts Company, 14111 Scottslawn Road, Marysville, Ohio 43041) comprising spaghnum peat moss, vermiculite, wetting agent and starter nutrients and treated postemergence with test chemicals formulated in the same manner. Plants ranged in height from 2 to 10 cm and were in the one- to two-leaf stage for the postemergence treatment. Treated plants and untreated controls were maintained in a greenhouse for approximately 14-21 d, after which time all treated plants were compared to untreated controls and visually evaluated for injury. Plant response ratings, summarized in Tables K1 to K4, are based on a 0 to 100 scale where 0 is no effect and 100 is complete control. A dash (-) response means no test result. Test results are presented as a mean of 4 reps.

[2] = test system: common waterhemp (AMATU; Amaranthus rudis); test: as above
From the text: as §1, §2

[3] = test system: soybean (GLXMA; Glycine max, cv. Pioneer 35T58); test: as above
From the text: as §1, §2

[4] = test system: giant foxtail (SETFA; Setaria faberi); test: as above
From the text: as §1, §2

[5] = test system: corn (ZEAMD; Zea mays, cv. ‘Pioneer 1184’); test: Test H postemergence, mixtures of Cpd. No. 20 with atrazine or glyphosate
From the text: (§3) This test evaluated the effect of mixtures of Cpd. No. 20 with atrazine or glyphosate on several plant species. Seeds of plant species selected from corn (ZEAMD; Zea mays, cv. ‘Pioneer 1184’), soybean (GLXMA; Glycine max, cv. Pioneer 35T58), giant foxtail (SETFA; Setaria faberi), Surinamgrass (BRADC; Brachiaria decumbens), fall panicum (PANDI; Panicum dichotomiflorum), velvetleaf (ABUTH; Abutilon threophrasti), mare's tail (ERICA; Conyza canadensis), barnyardgrass (ECHCG; Echinochloa crus-galli), large crabgrass (DIGSA; Digitaria sanguinalis), palmer amaranth (AMAPA; Amaranthus palmeri), common waterhemp (AMATU; Amaranthus rudis), E. black nightshade (SOLPT; Solanum ptycanthum), and common ragweed (AMBEL; Ambrosia artemisiifolia) were planted in pots containing Redi-Earth® planting medium (Scotts Company, 14111 Scottslawn Road, Marysville, Ohio 43041) comprising spaghnum peat moss, vermiculite, wetting agent and starter nutrients and treated postemergence using test chemicals formulated in a non-phytotoxic solvent mixture which included a surfactant. Plants ranged in height from 2 to 10 cm and were in the one- to two-leaf stage for the postemergence treatment. Treated plants and untreated controls were maintained in a greenhouse for approximately 14 d, after which time all treated plants were compared to untreated controls and visually evaluated for injury. Plant response ratings, summarized in Tables H1 & H2, are based on a 0 to 100 scale where 0 is no effect and 100 is complete control. A dash (-) response means no test result. Test results are presented as a mean of 4 reps.

[6] = test system: barnyardgrass (ECHCG; Echinochloa crus-galli); test: as above
From the text: as §3

[7] = test system: large crabgrass (DIGSA; Digitaria sanguinalis); test: as above
From the text: as §3

[8] = test system: palmer amaranth (AMAPA; Amaranthus palmeri); test: as above
From the text: as §3

[9] = test system: common waterhemp (AMATU; Amaranthus rudis); test: as above
From the text: as §3

[10] = test system: soybean (GLXMA; Glycine max, cv. Pioneer 35T58); test: as above
From the text: as §3

[11] = test system: common ragweed (AMBEL; Ambrosia artemisiifolia); test: as above
From the text: as §3

[12] = test system: giant foxtail (SETFA; Setaria faberi); test: as above
From the text: as §3

[13] = test system: E. black nightshade (SOLPT; Solanum ptycanthum); test: as above
From the text: as §3

[14] = test system: velvetleaf (ABUTH; Abutilon threophrasti); test: as above
From the text: as §3

[15] = test system: fall panicum (PANDI; Panicum dichotomiflorum); test: as above
From the text: as §3

Compound: Cc1ccc2ccc(C)c(-c3c(O)c(Cl)nn(C)c3=O)c2c1 [Cpd. No. 20, 6-chloro-4-(2,7-dimethyl-1-naphthalenyl)-5-hydroxy-2-methyl-3(2H)-pyridazinone]
- ZEAMD plant response rating, 0 to 100 scale ([1]; postemergence, 8 g a.i./ha): 0
- ZEAMD plant response rating, 0 to 100 scale ([1]; postemergence, 16 g a.i./ha): 0
- ZEAMD plant response rating, 0 to 100 scale ([1]; postemergence, 31 g a.i./ha): 0
- ZEAMD plant response rating, 0 to 100 scale ([1]; postemergence, 62 g a.i./ha): 0
- ZEAMD plant response rating, 0 to 100 scale ([1]; preemergence, 8 g a.i./ha): 0
- ZEAMD plant response rating, 0 to 100 scale ([1]; preemergence, 16 g a.i./ha): 0
- ZEAMD plant response rating, 0 to 100 scale ([1]; preemergence, 31 g a.i./ha): 0
- ZEAMD plant response rating, 0 to 100 scale ([1]; preemergence, 62 g a.i./ha): 0
- AMATU plant response rating, 0 to 100 scale ([2]; postemergence, 8 g a.i./ha): 50
- AMATU plant response rating, 0 to 100 scale ([2]; postemergence, 16 g a.i./ha): 57
- AMATU plant response rating, 0 to 100 scale ([2]; postemergence, 31 g a.i./ha): 68
- AMATU plant response rating, 0 to 100 scale ([2]; postemergence, 62 g a.i./ha): 62
- AMATU plant response rating, 0 to 100 scale ([2]; preemergence, 8 g a.i./ha): 0
- AMATU plant response rating, 0 to 100 scale ([2]; preemergence, 16 g a.i./ha): 0
- AMATU plant response rating, 0 to 100 scale ([2]; preemergence, 31 g a.i./ha): 20
- AMATU plant response rating, 0 to 100 scale ([2]; preemergence, 62 g a.i./ha): 30
- GLXMA plant response rating, 0 to 100 scale ([3]; postemergence, 8 g a.i./ha): 0
- GLXMA plant response rating, 0 to 100 scale ([3]; postemergence, 16 g a.i./ha): 0
- GLXMA plant response rating, 0 to 100 scale ([3]; postemergence, 31 g a.i./ha): 8
- GLXMA plant response rating, 0 to 100 scale ([3]; postemergence, 62 g a.i./ha): 13
- GLXMA plant response rating, 0 to 100 scale ([3]; preemergence, 8 g a.i./ha): 0
- GLXMA plant response rating, 0 to 100 scale ([3]; preemergence, 16 g a.i./ha): 0
- GLXMA plant response rating, 0 to 100 scale ([3]; preemergence, 31 g a.i./ha): 0
- GLXMA plant response rating, 0 to 100 scale ([3]; preemergence, 62 g a.i./ha): 0
- SETFA plant response rating, 0 to 100 scale ([4]; postemergence, 8 g a.i./ha): 37
- SETFA plant response rating, 0 to 100 scale ([4]; postemergence, 16 g a.i./ha): 62
- SETFA plant response rating, 0 to 100 scale ([4]; postemergence, 31 g a.i./ha): 77
- SETFA plant response rating, 0 to 100 scale ([4]; postemergence, 62 g a.i./ha): 92
- SETFA plant response rating, 0 to 100 scale ([4]; preemergence, 8 g a.i./ha): 6
- SETFA plant response rating, 0 to 100 scale ([4]; preemergence, 16 g a.i./ha): 50
- SETFA plant response rating, 0 to 100 scale ([4]; preemergence, 31 g a.i./ha): 84
- SETFA plant response rating, 0 to 100 scale ([4]; preemergence, 62 g a.i./ha): 100
- Observed result (plant response rating), ZEAMD ([5]; applied alone at 31 g a.i./ha): 0
- Observed result (plant response rating), ZEAMD ([5]; applied alone at 62 g a.i./ha): 0
- Observed result (plant response rating), ZEAMD ([5]; applied alone at 125 g a.i./ha): 0
- Observed result (plant response rating), ECHCG ([6]; applied alone at 31 g a.i./ha): 100
- Observed result (plant response rating), ECHCG ([6]; applied alone at 62 g a.i./ha): 100
- Observed result (plant response rating), ECHCG ([6]; applied alone at 125 g a.i./ha): 100
- Observed result (plant response rating), DIGSA ([7]; applied alone at 31 g a.i./ha): 34
- Observed result (plant response rating), DIGSA ([7]; applied alone at 62 g a.i./ha): 29
- Observed result (plant response rating), DIGSA ([7]; applied alone at 125 g a.i./ha): 36
- Observed result (plant response rating), AMAPA ([8]; applied alone at 31 g a.i./ha): 10
- Observed result (plant response rating), AMAPA ([8]; applied alone at 62 g a.i./ha): 36
- Observed result (plant response rating), AMAPA ([8]; applied alone at 125 g a.i./ha): 54
- Observed result (plant response rating), AMATU ([9]; applied alone at 31 g a.i./ha): 70
- Observed result (plant response rating), AMATU ([9]; applied alone at 62 g a.i./ha): 80
- Observed result (plant response rating), AMATU ([9]; applied alone at 125 g a.i./ha): 80
- Observed result (plant response rating), GLXMA ([10]; applied alone at 31 g a.i./ha): 30
- Observed result (plant response rating), GLXMA ([10]; applied alone at 62 g a.i./ha): 21
- Observed result (plant response rating), GLXMA ([10]; applied alone at 125 g a.i./ha): 18
- Observed result (plant response rating), AMBEL ([11]; applied alone at 31 g a.i./ha): 89
- Observed result (plant response rating), AMBEL ([11]; applied alone at 62 g a.i./ha): 94
- Observed result (plant response rating), AMBEL ([11]; applied alone at 125 g a.i./ha): 98
- Observed result (plant response rating), SETFA ([12]; applied alone at 31 g a.i./ha): 71
- Observed result (plant response rating), SETFA ([12]; applied alone at 62 g a.i./ha): 79
- Observed result (plant response rating), SETFA ([12]; applied alone at 125 g a.i./ha): 80
- Observed result (plant response rating), SOLPT ([13]; applied alone at 31 g a.i./ha): 86
- Observed result (plant response rating), SOLPT ([13]; applied alone at 62 g a.i./ha): 93
- Observed result (plant response rating), SOLPT ([13]; applied alone at 125 g a.i./ha): 95
- Observed result (plant response rating), ABUTH ([14]; applied alone at 31 g a.i./ha): 76
- Observed result (plant response rating), ABUTH ([14]; applied alone at 62 g a.i./ha): 89
- Observed result (plant response rating), ABUTH ([14]; applied alone at 125 g a.i./ha): 94
- Observed result (plant response rating), PANDI ([15]; applied alone at 31 g a.i./ha): 73
- Observed result (plant response rating), PANDI ([15]; applied alone at 62 g a.i./ha): 84
- Observed result (plant response rating), PANDI ([15]; applied alone at 125 g a.i./ha): 89
